“Also recorded” adds a separate entry of the source.
Legend:
EGFR T790M = EGFR T790M (Homo sapiens (Human), UniProt P00533, T790M); assay: EGFR mutant T790M inhibition assay; type: biochemical
Procedure: The Omnia Assay Protocol for potency assessment against EGFR is performed as described in Example 251 above except that the EGFR-WT- and EGFR T790M/L858R-modified optimized reagent conditions are: […]

Erbb4 kinase domain = Erbb4 kinase domain (Homo sapiens (Human), UniProt Q15303); assay: Mass spectrometry for ERBB4; type: binding; settings: 60 minutes at 10-fold excess of compound
Procedure: Erbb4 kinase domain (Upstate) was incubated with compound for 60 minutes at 10-fold excess of compound I-4 and I-11 to protein. 1 μl aliquots of the samples (total volume of 4.24 ul) were diluted with 10 μl of 0.1% TFA prior to micro C4 ZipTipping directly onto the MALDI target using Sinapinic acid as the desorption matrix (10 mg/ml in 0.1% TFA:Acetonitrile 50:50). For intact protein mass measurement the instrument was set in Linear mode using a pulsed extraction setting of 16,952 for the myoglobin standard used to calibrate the instrument (Shimadzu Axima TOF^2).
Intact ErbB4 protein occurs at MH+ of 35850 with corresponding sinapinic (matrix) adducts occurring about 200 Da higher. A stochiometric incorporation of the test compound (I-4 and I-11) (Mw of 410 Da) produced a new mass peak which is approximately 410 Da higher (MH+ of 36260).

[1] = test system: TI-2 independent B cell activation; assay: In vivo thymus-independent (TI-2) B cell activation; settings: C57/B6 mice, 100 mg/kg daily day 0 through 5, TNP-Ficoll, serum day 6
BTK [2] = biological target: T1, BTK (Homo sapiens (Human), UniProt Q06187); assay: Washout experiment with I-7 and probe compound I-215 in Ramos cells; type: cell-based; settings: 0.1 μM for 1 hour
BTK [3] = biological target: T1, BTK; assay: Mass spectrometry for BTK (intact protein); type: binding; settings: 1 hr, 10× fold excess of compound
Procedure: Intact BTK was incubated for 1 hr at a 10× fold excess of I-7 to protein. Aliquots (2 μl) of the samples were diluted with 10 μl of 0.1% TFA prior to micro C4 ZipTipping directly onto the MALDI target using Sinapinic acid as the desorption matrix (10 mg/ml in 0.1% TFA:Acetonitrile 20:80).

BTK [4] = biological target: T1, BTK; assay: BTK occupancy in Ramos cells with I-7 and probe I-215 using streptavidin beads; type: cell-based; settings: 1 hour, higher concentrations of I-7 (0.1, 0.05 μM)
Procedure: Ramos cells were incubated with 0.1, 0.05, 0.01, or 0.001 μM I-7 in serum free media for 1 hour at 37° C. The cells were pelleted by centrifugation and lysed in Cell Extraction buffer (Invitrogen) for 10 minutes on ice, centrifuged (10 minutes at 14,000 rpm) and the supernatant was collected. Cell lysates were incubated with 1 μM I-215 for 1 hour at room temperature, then incubated with streptavidin-coupled agarose beads (ThermoFisher) overnight at 4° C. The beads were washed three times with lysis buffer and the bound proteins were boiled off the beads at 95° C. for 5 minutes in 4×LDS Sample Buffer. The amount of BTK associated with the probe I-215 was assessed by BTK western blot. All values were normalized to the DMSO-treated sample which is set to 100%.

PG-PS arthritis model = type: in vivo; settings: female Lewis rats, oral gavage daily through day 22
Procedure: On day 0, female Lewis rats received an intraperitoneal (IP) bolus of peptidoglycan-polysaccharide (PG-PS) in an amount of 15 μg/g rat body weight. Baseline control rats received an IP bolus of PBS. The vehicle and treatment groups were dosed via oral gavage just prior to PG-PS administration. Treatment with vehicle and compound continued each day through day 22. Maximal lateral ankle width measurements of both rear limbs were collected with a caliper throughout the study. On day 23, study was terminated and the final change in ankle swelling was calculated and compared to vehicle controls.

T1 sequence (Q06187 whole entry): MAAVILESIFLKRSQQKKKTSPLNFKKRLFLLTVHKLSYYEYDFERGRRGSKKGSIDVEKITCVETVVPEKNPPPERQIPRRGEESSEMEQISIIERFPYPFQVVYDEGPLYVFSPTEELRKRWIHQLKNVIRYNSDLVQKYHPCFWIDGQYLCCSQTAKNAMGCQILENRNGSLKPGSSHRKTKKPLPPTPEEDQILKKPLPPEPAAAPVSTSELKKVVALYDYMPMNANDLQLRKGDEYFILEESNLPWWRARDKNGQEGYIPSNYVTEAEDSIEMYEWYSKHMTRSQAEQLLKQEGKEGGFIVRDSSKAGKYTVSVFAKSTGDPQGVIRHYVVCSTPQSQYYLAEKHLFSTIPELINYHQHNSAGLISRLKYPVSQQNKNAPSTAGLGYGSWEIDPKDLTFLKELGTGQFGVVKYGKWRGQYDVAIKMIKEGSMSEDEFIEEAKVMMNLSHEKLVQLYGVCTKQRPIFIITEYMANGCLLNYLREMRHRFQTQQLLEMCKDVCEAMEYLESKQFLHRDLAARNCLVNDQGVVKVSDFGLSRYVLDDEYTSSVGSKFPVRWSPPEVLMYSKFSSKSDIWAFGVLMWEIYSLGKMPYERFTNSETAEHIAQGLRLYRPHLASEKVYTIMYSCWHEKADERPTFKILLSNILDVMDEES
Sequence of Erbb4 kinase domain (Q15303 718-985): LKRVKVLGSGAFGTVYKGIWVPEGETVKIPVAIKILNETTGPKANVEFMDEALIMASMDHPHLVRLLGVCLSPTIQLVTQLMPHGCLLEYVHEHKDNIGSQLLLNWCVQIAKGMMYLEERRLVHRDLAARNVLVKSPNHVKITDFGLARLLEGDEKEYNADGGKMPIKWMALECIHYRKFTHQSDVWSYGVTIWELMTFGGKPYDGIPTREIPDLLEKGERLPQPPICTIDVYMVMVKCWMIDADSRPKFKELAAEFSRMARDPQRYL
Sequence of EGFR T790M (P00533 25-1210 T790M): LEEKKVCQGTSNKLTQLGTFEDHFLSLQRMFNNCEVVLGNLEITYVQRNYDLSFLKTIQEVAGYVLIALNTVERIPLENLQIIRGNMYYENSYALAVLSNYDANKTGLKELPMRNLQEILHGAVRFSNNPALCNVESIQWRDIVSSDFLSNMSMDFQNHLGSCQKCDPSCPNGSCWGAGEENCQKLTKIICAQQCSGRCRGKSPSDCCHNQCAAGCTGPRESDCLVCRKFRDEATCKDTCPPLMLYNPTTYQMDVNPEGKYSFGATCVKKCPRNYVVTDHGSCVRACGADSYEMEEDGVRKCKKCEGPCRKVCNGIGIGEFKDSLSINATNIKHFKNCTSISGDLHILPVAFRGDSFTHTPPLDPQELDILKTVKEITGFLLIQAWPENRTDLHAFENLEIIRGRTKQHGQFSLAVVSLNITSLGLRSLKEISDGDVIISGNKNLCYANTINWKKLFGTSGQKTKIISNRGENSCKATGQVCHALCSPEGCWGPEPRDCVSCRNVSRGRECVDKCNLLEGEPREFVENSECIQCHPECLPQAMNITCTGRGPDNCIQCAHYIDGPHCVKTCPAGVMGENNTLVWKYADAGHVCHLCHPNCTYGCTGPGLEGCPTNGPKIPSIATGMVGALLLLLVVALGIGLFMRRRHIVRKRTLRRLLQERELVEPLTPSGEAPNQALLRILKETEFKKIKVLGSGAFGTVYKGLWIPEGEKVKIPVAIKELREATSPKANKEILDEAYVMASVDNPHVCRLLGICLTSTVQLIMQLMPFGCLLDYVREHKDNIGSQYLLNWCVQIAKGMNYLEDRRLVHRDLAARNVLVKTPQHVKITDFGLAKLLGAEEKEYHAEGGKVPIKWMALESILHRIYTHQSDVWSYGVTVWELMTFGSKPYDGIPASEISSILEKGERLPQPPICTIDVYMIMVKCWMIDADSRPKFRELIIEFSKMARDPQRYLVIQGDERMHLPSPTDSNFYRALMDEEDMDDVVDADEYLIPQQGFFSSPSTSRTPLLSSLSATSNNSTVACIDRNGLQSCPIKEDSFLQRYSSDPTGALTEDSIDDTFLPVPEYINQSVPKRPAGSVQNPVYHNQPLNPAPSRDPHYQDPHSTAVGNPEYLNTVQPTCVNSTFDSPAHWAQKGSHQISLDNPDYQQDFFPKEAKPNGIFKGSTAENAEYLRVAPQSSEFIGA

Compound	IC50 (EGFR T790M) [µM]	covalent modification of ErbB4 (mass spectrometry) (Erbb4 kinase domain)	% Inhibition IgG3 (1:100) [1] [%]	% Inhibition IgM (1:1600) [1] [%]	time BTK protein remains occupied after compound removal (BTK [2])	covalent modification of BTK (mass spectrometry) (BTK [3])	BTK occupancy (BTK available to probe I-215) (BTK [4])	% inhibition ankle swelling (PG-PS arthritis model) [%]
Cc1cccc(Nc2nc(Nc3cccc(NC(=O)/C=C/CN(C)C)c3)ncc2F)c1 [Compound I-4, (E)-4-(dimethylamino)-N-(3-(5-fluoro-4-(m-tolylamino)pyrimidin-2-ylamino)phenyl)but-2-enamide]	< 0.01	covalent modification	–	–	–	–	–	–
C=CC(=O)Nc1cccc(Nc2nc(Nc3ccccc3)ncc2C)c1 [Compound I-7, N-(3-(5-methyl-2-(phenylamino)pyrimidin-4-ylamino)phenyl) acrylamide]	–	–	57	48	over 8 hours	complete modification; also recorded: covalent modification	fully occupied	77.5

Source: patent publication US9987276B2 (Celgene CAR LLC, priority 2008, dated 2018)
